# Patent US20230293475A1, “METHODS OF PROVIDING SO[…] TO SUBJECTS WITH IMPAIRED RENAL FUNCTION” (Axsome Malta Ltd., priority 2020, published 2023)
# Like-named read-outs stand apart in the source and are kept apart here.
# Experiments:
# [1] = Phase 1 single-dose study, urinary excretion of solriamfetol; type: in vivo, human; conditions: for Fe(0-48), fraction of the dose excreted unchanged in urine in 48 hours, mean ± SD (%CV) / CL renal: single 75-mg dose; for cumulative amount excreted in urine: Group 5 ESRD, 1 participant; for CL renal: both sexes, human, urine, oral, 75 mg, read-out: CLR, renal clearance, mean ± SD (%CV) (converted)
# Method: (§1) Groups 1-4 received one dose of solriamfetol HCl (89.3 mg; equivalent to 75-mg solriamfetol) on day 1; Group 5 received one dose equivalent to 75-mg dose on day 1 followed by 4-hour hemodialysis (designated Group 5.2), and one dose equivalent to 75-mg solriamfetol on day 8 without hemodialysis (designated Group 5.1). All doses were administered on an empty stomach following an overnight fast except for participants in Group 5, who received a standardized snack on day 7 and breakfast early on day 8 before starting an 8-hour fast. Participants remained fasting for 4 hours after administration, with water allowed except for 1 hour before and after dosing.
# Urine samples were collected predose and for the time intervals of 0-4, 4-8, 8-12, 12-24, and 24-48 hours in Groups 1-3, with additional collection for the 48-72 hour time interval in Groups 4 and 5. During the hemodialysis period on day 1 for Group 5, dialysate samples and pre- and post-dialyzer paired blood samples were collected at pre-dialysis (2 hours), and at 3, 4, 5, and 6 hours following dosing. Urine and dialysate samples were aliquoted into polypropylene tubes for freezing and storage at -70° C. until analysis. All blood, urine, and dialysate samples were shipped on dry ice to a central bioanalytical laboratory.
# Bioanalytical analyses were performed by a central laboratory (KCAS, LLC, Shawnee, Kansas) using validated proprietary methods that included extraction/derivatization and liquid chromatography-tandem mass spectrometry (LC-MS/MS). Measurement of solriamfetol was over the linear range of 8.42 to 4,210 ng/mL in plasma, 0.21 to 84.2 µg/mL in urine, and 1.68 to 842 ng/mL in dialysate. Solriamfetol was removed from dialysate samples with use of the Fresenius Optiflux F180NR dialyzer (Fresenius Medical Care, Waltham, Massachusetts). Assay performance was monitored by spiking blank interference free human plasma with positive controls and internal standards to generate standard curve and quality control samples. After derivatization, samples were chromatographed on a C8 reversed phase analytical HPLC (high-performance liquid chromatography) column, with subsequent monitoring using an API4000 LC-MS/MS unit (Sciex, Framingham, Massachusetts). Quantification was based on setting a calibration graph using the internal standard method. Coefficients of variation (CVs) for quality control samples were 3.2% to 6.0% for the plasma samples, 1.6% to 5.6% for the urine samples, and 3.5% to 7.1% for the dialysate samples.
# The following plasma PK parameters were evaluated using non-compartmental analysis in Phoenix® WinNonlin® Version 6.3: Cmax; time to reach Cmax following drug administration (tmax); t½; area under the plasma concentration-time curve from time zero to time of last quantifiable concentration (AUCt); AUC from time zero to infinity (AUC∞); apparent total clearance of the drug from plasma after oral administration (CL/F); and apparent volume of distribution (Vd/F). The PK parameters for solriamfetol in urine included the amount of unchanged drug excreted in urine (Ae) over 48 or 72 hours; the fraction of the dose excreted unchanged in urine (Fe); and renal clearance of the drug (CLR). For participants on hemodialysis (Group 5), the additional PK parameters included the amount of solriamfetol cleared by the 4-hour hemodialysis (Adial); the fraction of dose removed by the 4-hour hemodialysis (Fdial); and hemodialysis clearance (CLdial) calculated as CLdial = Adial/AUCdial where AUCdial is the area under the pre-dialyzer plasma concentration-time curve during the hemodialysis period.
# [2] = Phase 1 single-dose study, safety (treatment-emergent adverse events); type: in vivo, human
# Method: In healthy subjects with normal renal function, solriamfetol HCl is renally excreted ~90% unchanged within 48 hours of administration. Thus, renal impairment, as well as hemodialysis in individuals with end-stage renal disease (ESRD), could affect the PK of solriamfetol HCl. To ascertain the precise impact of renal impairment and hemodialysis on pharmacokinetics and safety of solriamfetol RCl, a Phase 1, parallel-group, open-label, single-dose study was conducted at 2 U.S. sites. The protocol was approved by the IntegReview Institutional Review Board (Austin, Texas), and the study was conducted in compliance with the protocol, the Guideline for Good Clinical Practice E6; the US Code of Federal Regulations pertaining to conduct and reporting of clinical studies; the Clinical Trials Directive of the European Medicines Agency (Directive 2001/20/EC); and the Declaration of Helsinki. Written informed consent was obtained from each subject before enrollment in the study and before performance of any study-related procedure. See, also, Zomorodi K, Chen D, Lee L, Lasseter K, Marbury T. An Open-Label, Single-Dose, Phase 1 Study of the Pharmacokinetics and Safety of JZP-110 in Subjects With Normal or Impaired Renal Function and With End-Stage Renal Disease Requiring Hemodialysis [abstract]. Sleep. 2017;40 (suppl):A382-383.
# Eligible participants were assigned to 1 of 5 groups according to renal disease status as measured by the estimated glomerular filtration rate (eGFR) on the day prior to dosing, calculated using the Modification in Diet in Renal Disease equation. Group 1 consisted of healthy participants with normal renal function (eGFR ≥ 90 mL/min/1.73 m^2) and served as the control group. Groups 2, 3, and 4 had mild, moderate, and severe renal impairment based on eGFRs of 60-89, 30-59, and < 30 mL/min/1.73 m^2, respectively. Group 5 consisted of participants with ESRD who required ≥ 3 hemodialysis treatments per week for the preceding 3 months. […] Group 1 was enrolled last to facilitate matching the mean age, BMI, and sex distribution of Groups 2-5.
# as §1
# [3] = Group 3 moderate renal impairment
# [4] = Group 4 severe renal impairment
# [5] = Group 1 normal renal function (n = 6), single 75-mg dose
# [6] = Group 2 mild renal impairment (n = 6), single 75-mg dose
# [7] = Group 3 moderate renal impairment (n = 6), single 75-mg dose
# [8] = Group 4 severe renal impairment (n = 6), single 75-mg dose
# [9] = Group 5.1 ESRD without hemodialysis (n = 6), single 75-mg dose
# [10] = Group 5.2 ESRD with hemodialysis (n = 7), single 75-mg dose
compound,measurement,setting,value
"NC(=O)OC[C@H](N)Cc1ccccc1 [solriamfetol, [R]-2-amino-3-phenylpropylcarbamate]","Fe(0-48), fraction of the dose excreted unchanged in urine in 48 hours, mean ± SD (%CV)",[1]; Group 1 normal renal function,85.8%
same,"Fe(0-48), fraction of the dose excreted unchanged in urine in 48 hours, mean ± SD (%CV)",[1]; Group 2 mild renal impairment,80.0%
same,"Fe(0-48), fraction of the dose excreted unchanged in urine in 48 hours, mean ± SD (%CV)",[1]; [3],66.4%
same,"Fe(0-48), fraction of the dose excreted unchanged in urine in 48 hours, mean ± SD (%CV)",[1]; [4],57.1%
same,cumulative amount excreted in urine,[1]; with hemodialysis,42.1%
same,cumulative amount excreted in urine,[1]; without hemodialysis,52.9%
same,CL renal,[1]; Group 1 normal renal function,283 mL/min
same,CL renal,[1]; Group 2 mild renal impairment,155 mL/min
same,CL renal,[1]; [3],96.7 mL/min
same,CL renal,[1]; [4],63.3 mL/min
same,mean percentage of dose recovered in urine as unchanged drug over 72 hours,[1]; severe renal impairment,64.0%
same,"aspartate aminotransferase (AST), increase to","[2]; 1 participant, Group 5, 6 days after dosing, reference range 8-40 IU/L",66 IU/L
same,"alanine aminotransferase (ALT), increase to","[2]; 1 participant, Group 5, 6 days after dosing, reference range 8-54 IU/L",144 IU/L
same,"ALT increased, number (%) of participants",[2]; [5],0
same,"AST increased, number (%) of participants",[2]; [5],0
same,"Any TEAE, number (%) of participants",[2]; [5],0
same,"Headache, number (%) of participants",[2]; [5],0
same,"Nausea, number (%) of participants",[2]; [5],0
same,"Skin abrasion, number (%) of participants",[2]; [5],0
same,"ALT increased, number (%) of participants",[2]; [6],0
same,"AST increased, number (%) of participants",[2]; [6],0
same,"Any TEAE, number (%) of participants",[2]; [6],1 (17%)
same,"Headache, number (%) of participants",[2]; [6],0
same,"Nausea, number (%) of participants",[2]; [6],0
same,"Skin abrasion, number (%) of participants",[2]; [6],1 (17%)
same,"ALT increased, number (%) of participants",[2]; [7],0
same,"AST increased, number (%) of participants",[2]; [7],0
same,"Any TEAE, number (%) of participants",[2]; [7],1 (17%)
same,"Headache, number (%) of participants",[2]; [7],1 (17%)
same,"Nausea, number (%) of participants",[2]; [7],0
same,"Skin abrasion, number (%) of participants",[2]; [7],0
same,"ALT increased, number (%) of participants",[2]; [8],0
same,"AST increased, number (%) of participants",[2]; [8],0
same,"Any TEAE, number (%) of participants",[2]; [8],0
same,"Headache, number (%) of participants",[2]; [8],0
same,"Nausea, number (%) of participants",[2]; [8],0
same,"Skin abrasion, number (%) of participants",[2]; [8],0
same,"ALT increased, number (%) of participants",[2]; [9],0
same,"AST increased, number (%) of participants",[2]; [9],0
same,"Any TEAE, number (%) of participants",[2]; [9],1 (17%)
same,"Headache, number (%) of participants",[2]; [9],0
same,"Nausea, number (%) of participants",[2]; [9],1 (17%)
same,"Skin abrasion, number (%) of participants",[2]; [9],0
same,"ALT increased, number (%) of participants",[2]; [10],1 (14%)
same,"AST increased, number (%) of participants",[2]; [10],1 (14%)
same,"Any TEAE, number (%) of participants",[2]; [10],1 (14%)
same,"Headache, number (%) of participants",[2]; [10],0
same,"Nausea, number (%) of participants",[2]; [10],0
same,"Skin abrasion, number (%) of participants",[2]; [10],0
same,"participants reporting treatment-emergent adverse events, total","[2]; all groups, 31 participants (13%)",4
same,deaths or other serious AEs,"[2]; all groups, single 75-mg dose",no deaths or other serious AEs
same,severity of all TEAEs as considered by the investigator,"[2]; all groups, single 75-mg dose",mild
same,vital sign and ECG measurements,"[2]; all groups, single 75-mg dose",No clinically significant abnormal findings
